Reference: patent US20070134657A1, “Methods and compositions relating to gradient exposed cells” (GENERAL HOSPITAL CORPORATION, THE, priority 2002, published 2007)

Columns and labels:
human neutrophils [1] = test: Effect of signaling pathway inhibitors on directional neutrophil migration in IL-8 gradients (microfluidic device); assay type: cell-based
Source text: (§1) Microfluidic Migration Assay and Timelapse Microscopy: Neutrophils (1×10^3 cells) were placed uniformly across the migration channel and allowed to migrate under a linear gradient of human Interleukin-8 (72 a.a.; PeproTech, Rocky Hill, N.J.) in IMDM with 0.5% (w/v) FCS flowing at 0.1 mm/sec. […] Brightfield images were taken every 30 seconds using a C4742-95 Hamamatsu digital camera (Hamamatsu, Japan) controlled by IPLab 3.6.1 (Scanalytics, Fairfax, Va.). Cell movement was always observed at a set point along the migration channel. Gradients were also calibrated at this set point. Migration was quantified for all cells across the gradient.
Signaling Pathway Inhibitors: Cells were treated with pertussis toxin (100 ng/mL; 30 minutes at 37° C.), wortmannin (1 μM, 10 μM; 20 minutes at 37° C., 8-Br-cAMP (1 mM; 15 minutes at room temperature), 8-Br-cGMP (1 mM; 15 minutes at room temperature) (Sigma-Aldrich), or the CXCR2 non-peptide antagonist, SB225002 (1 pM, 100 pM, 1 nM, or 1 μM for 15 minutes at 37° C.; Calbiochem, Calif.). Immediately after treatment cells were seeded in migration channel of the microfluidic device and allowed to migrate as described above.
Since receptor occupancy is known to play a role in directional decision making and gradient sensing in the context of chemotaxing eukaryotic cells, it was postulated that chemokine receptor occupancy by a chemokine might also play a critical role in the decision of a cell to move up or down a chemokine gradient. Thus, a SB25002, the specific non-peptide antagonist of the IL-8 receptor, CXCR2 was utilized to examine this postulate. Neutrophils were pretreated with SB225002 at concentrations between 1 pM and 1 μM and then exposed to 0 to 1.2 μM gradients of IL-8 in microfabricated devices as described above. Videos of cell migration were analysed using MetaMorph and MathLab software to generate normalized angular frequencies determined for cells migrating in each of the three sectors of the gradient. The absence of inhibitor generates a normalized angular frequency of 1.0 whereas inhibition of fugetactic or chemotactic angular frequencies results in a normalized frequency of <1.0 and augmentation of either directional response results in a value greater than 1. This analysis allows to precisely quantitate the effect of a given concentration of inhibitor on the directional decision of the cell to move up or down a gradient. […] Furthermore, although IL-8 binds to both CXCR2 and CXCR1 on the cell surface, of the human neutrophil bi-directional signaling was evidently critically dependent on CXCR2.
It had been previously shown that the signaling pathway for chemotaxis is distinct from that for chemorepulsion or fugetaxis. […] The study of neutrophil migration in microfabricated devices allows to examine precisely the effects of these inhibitors on quantitative parameters of cell migration including the directional bias of cells in the context of precisely defined and stable chemokine gradients. Primary human neutrophils were pretreated with known inhibitors of the chemokine signal transduction pathway including pertussis toxin, wortmannin, genistein, 8-Br-cAMP and 8-Br-cGMP and then exposed to IL-8 gradients in which chemotaxis and fugetaxis were seen. The effect of the inhibitor on directional migration towards or away from the chemokine was quantitated by determining the directional motility index of cells migrating in the context of these gradients. Movement vector angles corresponding to movement up the gradient (30 to 150 degrees—see FIG. 13) were defined as chemotactic and measured movement vector angles corresponding to movement down the gradient (210 to 330 degrees—see figure) were defined as fugetactic. The directional choice of cells to move up or down a chemokine gradient were therefore compared in the presence and the absence of an inhibitor. […]

human neutrophils [2] = test: Microfluidic migration assay of neutrophils in linear gradients of IL-8; assay type: cell-based
Description: Neutrophil isolation: Human whole blood was obtained from healthy volunteers by venipuncture into tubes containing sodium heparin (Becton Dickinson, San Jose, Calif.). Whole blood was centrifuged for 4 minutes at 2400 rpm and plasma was removed. Resulting pellet was resuspended in Iscove's Modified Dulbecco's Medium (IMDM; Cellgro MediaTech, Herndon, Va.) with 0.5% (w/v) fetal calf serum FCS; Cellgro MediaTech). 25 mL of suspension was layered over 10 mL Lymphocyte Separation Medium (ICN, Irvine, Calif.) and centrifuged for 40 minutes at 1600 rpm at 22° C. Supernatant was aspirated, resulting pellet was resuspended in IMDM with 0.5% (w/v) FCS and 2% (w/v) dextran (Sigma-Aldrich, St. Louis, Mo.), and red blood cells (RBC) were allowed to sediment for 30 minutes at room temperature. Supernatant was transferred into clean tube and centrifuged for 5 minutes at 2000 rpm. Supernatant was aspirated, pellet was mixed with cold ddH2O for hypotonic lysis of remaining RBCs, and transferred to IMDM with 0.5% (w/v) FCS. Isolated neutrophils were washed and resuspended in IMDM with 0.5% (w/v) FCS, determined to be 95% pure, and 99% viable by Trypan Blue exclusion.
Fabrication and Preparation of Microfluidic Linear Gradient Generator: The microfluidic linear gradient generator was fabricated in poly(dimethylsiloxane) (PDMS; Sylgard 184, Dow Corning, N.Y.) using rapid prototyping and soft lithography as described previously. Briefly, a high resolution printer was used to generate a transparency mask from a computer-aided design image file. The mask was used in contact photolithography with SU-8 photoresist (Microlithography Chemical Co., Newton Mass.) to generate a positive relief of patterned photoresist on a silicon wafer. Replicas with embossed channels were fabricated by curing PDMS prepolymer against the patterned wafer. Inlet and outlet ports for media and cell suspension were bored out of the cured PDMS replica using a sharpened syringe needle. The PDMS replica and glass substrate were placed in an oxygen plasma generator (150 mTorr, 100 W) for 1 minute. Immediately following plasma treatment, the PDMS replica and glass were placed against each other and irreversibly bonded. Polyethylene tubing (Becton Dickenson) was inserted into inlet and outlet ports to make the fluidic connections. Tubing was connected to a PHD 2000 syringe pump (Harvard Apparatus, Holliston, Mass.) to complete the setup. Hemostats were used to control flow during cell loading.
as §1, with “[…];” for “cells) were placed uniformly across the migration channel and allowed to migrate under a linear gradient of human Interleukin-8 (72 a.a.;”
Construction of Digital Videos for Quantitative Analysis: Digital videos were mad from time-lapse video microscopy file stacks or S-VHS videotapes using a combination of IPLab 3.6.1, Photoshop 6.0 (Adobe Systems, San Jose, Calif.), and Apple QuickTime Pro 5.0 (Apple Computer, Cupertino, Calif.). Migration tracking was carried out using MetaMorph 4.5 (Universal Imaging, Downington, Pa.) object tracking application, which generated tables of Cartesian coordinate data for each tracked cell.
Mathematical Analysis of Cell Migration in Linear Gradient Generator: The angular correlation function, or cosine correlation function, was calculated for each experiment. For experiments with no gradient, the correlation function decayed exponentially with increasing time interval, while the function decayed much slower, potentially by a power law, for experiments with a gradient; in all cases correlation of angles over time was increased as absolute [IL-8] increased. […]

rat neutrophils = test: Intravital microscopy of rat neutrophil migration in response to diffusive CINC-1 gradients in mesentery; assay type: in vivo
Description: Intravital Microscopy: Male Sprague Dawley rats (200-300 g) were purchased from Harlan-Olac (Bicester, U.K.). Male rats were prepared for intravital microscopy. Briefly, following sedation with i.m. Hypnorm (fentanyl-fluanisone mixture, 0.1 ml; Janssen-Cilag, High Wycombe, U.K.), animals were anesthetized with i.v. sodium pentobarbitone (30 mg/kg loading dose followed by 30 mg/kg/h; Rhône Mérieux, Harlow, U.K). The animals were maintained at 37° C. on a custom-built heated microscope stage. Following midline abdominal incision, the mesentery adjoining the terminal ileum was carefully arranged over a glass window in the microscope stage and pinned in position. The mesentery was kept warm and moist by continuous application of Tyrode's balanced salt solution (Sigma Aldrich). Mesenteric post-capillary venules (15-40 μm in diameter) were viewed on an upright fixed-stage microscope (Axioskop F S, Carl Zeiss, Welwyn Garden City, U.K.) fitted with water immersion objectives. Images were captured with a digital camera (C5810-01, Hamamatsu Photonics U.K., Enfield, U.K.) for viewing on a monitor (PVM-1453 MD, Sony U.K., Weybridge, U.K.) and storage by videocassette recorder (AG-MD830E, Panasonic U.K., Bracknell, U.K.). […] Firmly adherent leukocytes were defined as those that remained stationary for at least 30 s within a 100-μm segment of a venule. Extravasated leukocytes were defined as those in the perivenular tissue adjacent to, but remaining within a distance of 150 μm of a 100-μm length of vessel segment under study. After baseline readings of rolling, adhesion and transmigration were taken; CINC-1 at final concentrations of 10^−9 M, […] or 10^−7M (Peprotech) was applied topically to the mesenteric tissue in the superfusion buffer. Leukocyte responses within the chosen vessels were quantified for up to 180 minutes, during which the topical application of CINC-1 was maintained. In each animal, multiple vessel segments from appropriate vessels were quantified. Videos of migrating cells were constucted for quantitative and mathematical analysis as described above; at the end of certain in vivo experiments, the mesentery was stained with acridine orange (Sigma Aldrich), a nuclear dye, scanned with a 488 nm laser line generated from an Argon laser, and observed by confocal microscopy (LSM5 PASCAL, Axioskop II FS, Carl Zeiss) to verify that migrating cells were neutrophils.
Mathematical Modeling of Continuous Gradients in vivo: The chemokine concentration profile in the mesentery at steady state was predicted using a novel in vivo model based on classical diffusion equations applied on a spherical model of the postcapillary venule, and the assumption that the receptor-dependent transport of the chemokine by the endothelial cells is the main mechanism for generating the gradient the vicinity of postcapillary venules. The steady state solution was calculated for the concentration gradient around a sphere in a homogenous medium, with the two boundary conditions: 1) the concentration far from the sphere is constant, and 2) the chemokine flux across the surface of the sphere also constant. […] Thus, the steady state concentration C at distance r from the capillary wall was calculated as: [formula] […]

[3] = pretreated cells, IL-8 gradients in which chemotaxis and fugetaxis were seen

Molecule: O=C(Nc1ccc([N+](=O)[O-])cc1O)Nc1ccccc1Br [SB225002]
- effect on neutrophil chemotaxis (normalized angular frequency) (human neutrophils [1]; 1 pM and 100 pM inhibitor, 0 to 1.2 μM gradient of IL-8): augmented
- effect on neutrophil fugetaxis (normalized angular frequency) (human neutrophils [1]; 1 pM inhibitor, 0 to 1.2 μM gradient of IL-8, p=0.0037): significant inhibition
- effect on neutrophil fugetaxis (normalized angular frequency) (human neutrophils [1]; 100 pM inhibitor, 0 to 1.2 μM gradient of IL-8, p=0.0210): significant inhibition
- effect on neutrophil directional migration (human neutrophils [1]; gradually increasing concentrations (up to 1 μM), 0 to 1.2 μM gradient of IL-8): inhibited both fugetaxis and chemotaxis

Molecule: IL-8: human Interleukin-8 (72 a.a.; PeproTech), chemokine
- Persistence time of cell movement (human neutrophils [2]; IL-8 gradient in which chemotaxis is seen predominantly): 21.5 min
- Persistence time of cell movement (human neutrophils [2]; IL-8 gradient in which fugetaxis is seen predominantly): 10.9 min
- neutrophil migratory behaviour (human neutrophils [2]; chemokine at a uniform concentration across the migration channel): underwent chemokinesis
- mean chemotropism index (MCI) (human neutrophils [2]; gradient between 0 and 12 nM): +0.32
- mean chemotropism index (MCI) (human neutrophils [2]; gradient between 0 and 120 nM): +0.39
- mean chemotropism index (MCI) (human neutrophils [2]; gradient of 0 to 1.2 μM): −0.13
- neutrophil migratory behaviour (human neutrophils [2]; gradient of 0 to 1.2, cells commencing in the central third of the gradient): underwent chemokinesis
- neutrophil migratory behaviour (human neutrophils [2]; gradient of 0 to 1.2, cells in the lower third of the gradient): chemotaxed towards higher levels of the chemokine
- neutrophil migratory behaviour (human neutrophils [2]; gradient of 0 to 1.2, cells originating in the upper third of the gradient): underwent fugetaxis down the gradient
- neutrophil migratory behaviour (human neutrophils [2]; gradients between 0 and 12 nM and 0 and 120 nM): predominantly demonstrated chemotaxis
- mean sectional MCI (human neutrophils [2]; lower segment of the 0 to 10.2 μM gradient): +0.2
- mean sectional MCI (human neutrophils [2]; middle third of the 0 to 10.2 μM gradient): −0.14
- neutrophil migratory behaviour (human neutrophils [2]; steepest gradient, 0 to 2.4 μM): underwent chemokinesis regardless of their position within the gradient
- Persistence time of cell movement (human neutrophils [2]; uniform concentration of IL-8 (chemokinesis)): 4.5 min
- mean chemotropism index (MCI) (human neutrophils [2]; uniform concentration of chemokine at 120 nM): −0.02 +/−0.01
- mean sectional MCI (human neutrophils [2]; upper third of the 0 to 10.2 μM gradient): −0.22

Molecule: pertussis toxin
- effect on neutrophil chemotaxis (angular frequency, movement up the gradient) (human neutrophils [1]; [3]): significantly inhibited
- effect on neutrophil fugetaxis (angular frequency, movement down the gradient) (human neutrophils [1]; [3]): significantly inhibited

B1: CINC-1: rat IL-8 orthologue, cytokine induced neutrophil chemoattractant-1, signals via CXCR2 (protein, UniProt P14095 25-96, looked up)
Growth-regulated alpha protein: APVANELRCQCLQTVAGIHFKNIQSLKVMPPGPHCTQTEVIATLKNGREACLDPEAPMVQKIVQKMLKGVPK
- neutrophil response to superfused chemokine (rat neutrophils; 1 nM): minimal neutrophil adhesion to the luminal surface of the venule and transmigration
- neutrophil response to superfused chemokine (rat neutrophils; 100 nM): accumulation of neutrophils around the vessel without transmigration
- mean chemotropism index (MCI) in vivo (rat neutrophils; diffusive gradient with peak concentration of 10 nM): +0.32+/−0.06
- mean chemotropism index (MCI) in vivo (rat neutrophils; gradient replaced with peak concentration of 100 nM): −0.35+/−0.12
- peak chemokine concentration at which peak transendothelial migration of neutrophils from the blood occurred (rat neutrophils; superfusion at 1 nM, 10 nM or 100 nM for 90 minutes): 10 nM
